Experimental data published in PubChem BioAssay (NCI).
Values joined by “and” are separate entries in the source; they are usually repeats but may differ in a detail not shown here. Equal entries are not always repeated.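 Briefly, cells in 96-well plates were exposed to five compound concentrations for 48 h, and endpoints were estimated by linear interpolation. At the GI50, growth is halved. TGI marks complete inhibition of growth.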

Key:
Test in all cases: NCI-60 cell line screen, 48 h
[1] = tested on: OVCAR-8 ovarian
[2] = tested on: SNB-75 CNS
[3] = tested on: UO-31 renal
[4] = tested on: U251 CNS
[5] = tested on: OVCAR-3 ovarian
[6] = tested on: NCI-H460 lung
[7] = tested on: SR leukemia
[8] = tested on: M14 melanoma
[9] = tested on: CCRF-CEM leukemia
[10] = tested on: HOP-92 NSCLC

SMILES | TGI [1] | TGI [2] | TGI [3] | TGI [4] [µM] | TGI [5] | TGI [6] [µM] | TGI [7] [µM] | TGI [8] | TGI [9] [µM] | TGI [10] | GI50 [1] | GI50 [3] | GI50 [4] [µM] | GI50 [5] [µM] | GI50 [6] [µM] | GI50 [7] [µM] | GI50 [9] [µM] | GI50 [10] [µM] | GI50 [8] | GI50 [2]
Cc1cccc2c(O)cc(=O)oc12 | > 100 µM | > 100 µM | > 100 µM | > 100 | > 100 µM | > 100 | > 100 | > 100 µM | > 100 |  |  |  |  |  |  |  |  |  |  | 
O=C(O)C(Oc1nc(=S)[nH]c(=S)[nH]1)(c1ccc(Cl)cc1)c1ccc(Cl)cc1 | > 100 µM | > 100 µM | > 100 µM | > 100 | > 100 µM | > 100 | > 100 | > 100 µM |  | > 100 µM |  |  |  |  |  |  |  |  |  | 
Oc1ccc(N=Nc2ccccn2)c(O)c1 | > 100 µM |  | > 100 µM | > 100 | > 100 µM | > 100 | > 100 |  | > 100 | > 100 µM | 1.63 µM | 0.479 µM | 0.843 | 0.401 | 0.543 | 0.723 | 0.48 | 2.09 |  | 
Cc1c(Cl)cccc1NC(=O)c1sc2nc3c(cc2c1N)CCCCC3 | > 50 µM |  | > 50 µM | 15.8 | 1.69 µM | 8 | > 50 | > 50 µM | > 50 | 19.2 µM | 0.825 µM | 1.65 µM | 0.281 | 0.173 | 0.234 | 0.174 | 0.257 | 0.266 | 0.233 µM | 
O=C(/C=C\c1cccc2ccccc12)c1cccc2ccccc12 | 6.01 µM | 18.6 µM | 27.4 µM | 24.4 | 25.3 µM |  | > 100 | 26 µM | 8.97 |  | 2.61 µM |  | 12 | 12.5 |  | 3.95 | 2.28 |  |  | 
O=C(NC(=O)c1ccccc1[N+](=O)[O-])Nc1ccc(Oc2ncc(Cl)cn2)c(C(F)(F)F)c1 | 9.71 µM |  | 35.2 µM | 10.8 | 0.838 µM | > 20.7 | > 100 | 39.4 µM | > 100 | 3.24 µM |  |  |  |  |  |  |  |  |  | 
Oc1c(CN2CCN(c3ccccc3)CC2)cc(Br)c2cccnc12 | > 100 µM | 18.1 µM | > 30.5 µM | 7.87 | > 79.5 µM |  | 2.25 | > 42 µM | > 100 | 30.8 µM |  |  |  |  |  |  |  |  |  | 
C/C=N\N1C(=O)c2ccccc2C1=O | > 100 µM | > 100 µM | > 100 µM |  | > 100 µM | > 100 | > 100 | > 100 µM | > 100 | > 100 µM |  |  |  |  |  |  |  |  |  | 
NC(=S)NN=C1CSSC1 | 23.4 µM |  | 20.1 µM | 23.1 | 10.5 µM | 6.49 | > 100 | 7.79 µM | > 100 | 5.89 µM | 2.94 µM | 1.83 µM | 3.66 | 2.54 | 1.61 | 2.79 | 3.77 | 2.35 | 1.92 µM | 
CNCCN=c1ccc2c3c1c(O)c1c(O)ccc(=O)c1c3[nH]n2CCNCCO | 6.05 µM and 5.42 µM | 0.387 µM and 0.149 µM | 13 µM and 62.2 µM | 0.287 | 3.99 µM and 5.12 µM | 1.21 | 3.25 | 3.41 µM and 10.4 µM |  | 2.64 µM and 1.37 µM | 0.174 µM and 0.366 µM | 0.918 µM and 3.47 µM |  | 1.16 | 0.000851 |  |  | 0.199 | 0.397 µM and 1.19 µM | 0.0294 µM and 0.0772 µM
O=Nc1c(-c2c(O)[nH]c3ccc(Br)cc23)[nH]c2ccccc12 | > 100 µM | 28.3 µM | > 100 µM | 23.1 | 67.3 µM | 5.99 | 5.62 |  | 16.8 | 45.1 µM | 4.29 µM | 2.81 µM | 4.83 | 4.03 | 2.4 | 2.12 | 3.22 | 6.25 |  | 7.58 µM
O=C1OCC2=C1C(c1ccccc1)c1cc3c(cc1N2CCO)OCCO3 (stereo not drawn) | > 50 µM | 0.427 µM | > 35.3 µM | > 50 | 0.312 µM | 1.96 | 2.57 | 1.66 µM | > 50 |  | 0.651 µM | 0.3 µM | 0.279 | 0.132 | 0.193 | 0.14 | 0.276 |  | 0.23 µM | 0.121 µM
CCN(CC)c1ccc(/C=C/C=C2\NC(=O)NC2=O)cc1 | 66.6 µM | 79.5 µM | > 100 µM | 17.9 | 5.29 µM | 16.1 | > 100 | > 100 µM |  | 24.2 µM | 6.21 µM | 7.97 µM | 3.22 | 1.95 | 3.03 | 0.446 |  | 1.74 | 1.56 µM | 2.67 µM
O=C(O)/C(=C\c1ccncc1)c1cccc2ccccc12 | > 100 µM | > 100 µM |  | > 100 | > 100 µM | > 100 | > 100 | > 100 µM | > 100 | > 100 µM |  |  |  |  |  |  |  |  |  | 
CC1(C)C(=O)/C(=C\c2cccnc2)C[C@]2(C)[C@H]3CC[C@@H]4[C@@H](C(=O)/C=C/c5ccncc5)CC[C@@]4(C)[C@]3(C)CC[C@@H]12 | 10.3 µM |  | 3.04 µM | 3.03 | 3.36 µM | 4 | 9.81 | 4.93 µM | 8.53 | 3.39 µM | 2.34 µM | 1.67 µM | 1.62 | 1.7 | 1.9 | 1.68 | 1.79 | 1.48 | 1.89 µM | 
CC(=O)[CH-]C(C)=O.CC(=O)[CH-]C(C)=O.CC[O-].CC[O-].[Ti+4] | > 100 µM | > 100 µM | > 100 µM | > 100 | > 100 µM | > 100 |  | > 100 µM | > 100 | > 100 µM | > 100 µM | > 100 µM | > 100 | > 100 | > 100 |  | > 100 | > 100 | > 100 µM | > 100 µM
N.N.O=P([O-])([O-])C1(P(=O)([O-])[O-])CCCCCN1.[Pt+2] | > 100 µM | 88.1 µM | > 100 µM | > 100 | > 100 µM | > 100 |  | > 100 µM | > 100 | > 100 µM | > 100 µM | > 100 µM | 43.5 | > 100 | > 100 |  | > 100 | > 100 | > 100 µM | 29.5 µM
